From US6933304B2, “Heteroarylalkanoic acids as integrin receptor antagonists” (Pharmacia Corporation, priority 2000, dated 2005)
Counter-ions that a name gives are not always drawn.

Experiments:
[1] = target: T1, αVβ3 integrin (293-β3 cells) (Homo sapiens, UniProt P05106+P06756); test: 293-β3 cell adhesion assay (adhesion to immobilized vitronectin); format: cell-based; conditions: 200 uM Mn2+, read-out: 293-β3 (IC50 <10 μM)
T1 construct: expressed in transfected cells; host or cells: 293 human embryonic kidney cells (293-β3)
Text: While the β3 subunit of αVβ3 is only known to complex with αV or αIIb, the αV subunit complexes with multiple β subunits. The three αV integrins most homologous with αVβ3 are αVβ1, αVβ5 and αVβ6, with 43%, 56% and 47% amino acid identity in the β subunits, respectively. To evaluate the selectivity of compounds between the integrins αVβ3 and αVβ6, cell-based assays were established using the 293 human embryonic kidney cell line. 293 cells express αVβ1, but little to no detectable αVβ3 or αVβ6. cDNAs for β3 and β6 were transfected separately into 293 cells to generate 293-β3 and 293-β6 cells, respectively. High surface expression of αVβ3 and αVβ6 was confirmed by flow cytometry. Conditions were established for each cell line in which cell adhesion to immobilized human vitronectin was mediated by the appropriate integrin, as determined by a panel of integrin-specific, neutralizing monoclonal antibodies. Briefly, cells were incubated with inhibitor in the presence of 200 uM Mn^2+, allowed to adhere to immobilized vitronectin, washed, and adherent cells are detected endogenous alkaline phosphatase and para-nitrophenyl phosphate. An 8-point dose-response curve using either 10-fold or 3-fold dilutions of compound was evaluated by fitting a four-parameter logistic, nonlinear model (using SAS).

[2] = target: T2, Human fibrinogen receptor (IIb/IIIa) (Homo sapiens, UniProt P05106+P08514); test: Purified IIb/IIIa receptor assay (solid phase receptor assay, SPRA); format: binding; conditions: selectivity ratio: IC50 αIIbβ3 (solid phase receptor assay) over IC50 β3
T2 construct: Human fibrinogen receptor (IIb/IIIa) was purified from outdated platelets; from tissue; host or cells: outdated human platelets
Text: Human fibrinogen receptor (IIb/IIIa) was purified from outdated platelets. (Pytela, R., Pierschbacher, M. D., Argraves, S., Suzuki, S., and Rouslahti, E. “Arginine-Glycine-Aspartic acid adhesion receptors”, Methods in Enzymology 144(1987):475-489.) Human vitronectin was purified from fresh frozen plasma as described in Yatohgo, T., Izumi, M., Kashiwagi, H., and Hayashi, M., “Novel purification of vitronectin from human plasma by heparin affinity chromatography,” Cell Structure and Function 13(1988):281-292. Biotinylated human vitronectin was prepared by coupling NHS-biotin from Pierce Chemical Company (Rockford, IL) to purified vitronectin as previously described. (Charo, I. F., Nannizzi, L., Phillips, D. R., Hsu, M. A., Scarborough, R. M., “Inhibition of fibrinogen binding to GP IIb/IIIa by a GP IIIa peptide”, J. Biol. Chem. 266(3)(1991): 1415-1421.) Assay buffer, OPD substrate tablets, and RIA grade BSA were obtained from Sigma (St. Louis, Mo.). Anti-biotin antibody was obtained from Sigma (St. Louis, Mo.). Nalge Nunc-Immuno microtiter plates were obtained from (Rochester, N.Y.). ADP reagent was obtained from Sigma (St. Louis, Mo.).
This assay is essentially the same reported in Niiya, K., Hodson, E., Bader, R., Byers-Ward, V. Koziol, J. A., Plow, E. F. and Ruggeri, Z. M., “Increased surface expression of the membrane glycoprotein IIb/IIIa complex induced by platelet activation: Relationships to the binding of fibrinogen and platelet aggregation”, Blood 70(1987):475-483. The purified human fibrinogen receptor (IIb/IIIa) was diluted from stock solutions to 1.0 μg/mL in Tris-buffered saline containing 1.0 mM Ca^++, Mg^++, and Mn^++, pH 7.4 (TBS^+++). The diluted receptor was immediately transferred to Nalge Nunc-Immuno microtiter plates at 100 μL/well (100 ng receptor/well). The plates were sealed and incubated overnight at 4° C. to allow the receptors to bind to the wells. All remaining steps were at room temperature. The assay plates were emptied and 200 μL of 1% RIA grade BSA in TBS^+++ (TBS^+++/BSA) were added to block exposed plastic surfaces. Following a 2 hour incubation, the assay plates were washed with TBS^+++ using a 96 well plate washer. Logarithmic serial dilution of the test compound and controls were made starting at a stock concentration of […] and using 2 nM biotinylated vitronectin in TBS^+++/BSA as the diluent. This premixing of labeled ligand with test (or control) ligand, and subsequent transfer of 50 μL aliquots to the assay plate was carried out with a CETUS Propette robot; the final concentration of the labeled ligand was 1 nM and the highest concentration of test compound was 1.0×10^−4 M. The competition occurred for two hours after which all wells were washed with a plate washer as before. Affinity purified horseradish peroxidase labeled goat anti-biotin antibody was diluted 1:2000 in TBS^+++/BSA and 125 μL were added to each well. After 45 minutes, the plates were washed and incubated with […] substrate in 100 mM/L citrate buffer, pH 5.0. The plate was read with a microtiter plate reader at a wavelength of 450 nm and when the maximum-binding control wells reached an absorbance of about 1.0, the final A450 were recorded for analysis. The data were analyzed using a macro written for use with the EXCELJ spreadsheet program. The mean, standard deviation, and %CV were determined for duplicate concentrations. The mean A450 values were normalized to the mean of four maximum-binding controls (no competitor added)(B-MAX). The normalized values were subjected to a four parameter curve fit algorithm, [Robard et al., Int.

[3] = target: T3, αVβ6 (HT-29 human colon carcinoma cells) (Homo sapiens, UniProt P06756+P18564); test: HT-29 cell adhesion assay (adhesion to immobilized LAP); format: cell-based; conditions: selectivity ratio: IC50 αVβ6 (HT-29) over IC50 β3
T3 construct: endogenous in cells; host or cells: HT-29 human colon carcinoma cells
Description: To evaluate compound potency for membrane-bound αVβ6 an additional cell-based adhesion assay was established using the HT-29 human colon carcinoma cell line. High surface expression of αVβ6 on HT-29 cells was confirmed by flow cytometry. Conditions were established in which cell adhesion to immobilized human latency associated peptide (LAP) was mediated by the αVβ6, as determined by a panel of integrin-specific, neutralizing monoclonal antibodies. Briefly, cells were incubated with inhibitor in the presence of 200 uM Mn^2+, allowed to adhere to immobilized LAP, washed, and adherent cells are detected by quantifying endogenous alkaline phosphatase using para-nitrophenyl phosphate. An 8-point dose-response curve using either 10-fold or 3-fold dilutions of compound was evaluated by fitting a four-parameter logistic, nonlinear model (using SAS). The compounds evaluated were relatively ineffective at inhibition of αVβ6-mediated cell adhesion. The selective antagonism of the αVβ3 integrin is viewed as desirable in this class of compounds, as αVβ6 may also play a role in normal physiological processes of tissue repair and cellular turnover that routinely occur in the skin and pulmonary tissues.

T1 sequence (P06756 31-889 limits assumed): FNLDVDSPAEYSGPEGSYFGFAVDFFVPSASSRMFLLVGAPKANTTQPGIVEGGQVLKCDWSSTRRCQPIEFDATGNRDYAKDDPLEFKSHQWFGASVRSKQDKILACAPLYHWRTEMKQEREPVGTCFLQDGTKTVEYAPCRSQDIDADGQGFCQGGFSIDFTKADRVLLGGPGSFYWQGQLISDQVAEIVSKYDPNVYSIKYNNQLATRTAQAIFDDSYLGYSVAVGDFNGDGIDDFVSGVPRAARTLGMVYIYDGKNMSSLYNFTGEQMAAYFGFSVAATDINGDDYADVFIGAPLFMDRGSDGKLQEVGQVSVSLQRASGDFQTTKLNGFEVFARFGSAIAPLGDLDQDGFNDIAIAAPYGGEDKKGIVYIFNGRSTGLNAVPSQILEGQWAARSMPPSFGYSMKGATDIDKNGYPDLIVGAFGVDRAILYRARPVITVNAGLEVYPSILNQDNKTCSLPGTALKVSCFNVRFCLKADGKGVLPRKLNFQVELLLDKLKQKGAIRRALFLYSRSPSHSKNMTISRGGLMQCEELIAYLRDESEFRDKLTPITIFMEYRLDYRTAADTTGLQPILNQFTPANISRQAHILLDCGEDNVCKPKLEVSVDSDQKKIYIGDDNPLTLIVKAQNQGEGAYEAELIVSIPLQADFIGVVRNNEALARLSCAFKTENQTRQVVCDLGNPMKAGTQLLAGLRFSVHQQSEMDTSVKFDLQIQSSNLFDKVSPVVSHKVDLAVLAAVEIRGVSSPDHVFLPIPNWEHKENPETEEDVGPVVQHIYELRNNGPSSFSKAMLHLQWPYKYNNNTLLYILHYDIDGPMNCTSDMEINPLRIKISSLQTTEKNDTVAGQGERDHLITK
T1 sequence (P06756 891-1048 partner limits assumed): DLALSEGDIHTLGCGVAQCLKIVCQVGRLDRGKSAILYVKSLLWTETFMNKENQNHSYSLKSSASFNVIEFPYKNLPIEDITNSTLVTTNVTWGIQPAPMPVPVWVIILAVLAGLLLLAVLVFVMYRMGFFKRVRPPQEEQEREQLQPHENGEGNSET
T1 sequence (P05106 27-788): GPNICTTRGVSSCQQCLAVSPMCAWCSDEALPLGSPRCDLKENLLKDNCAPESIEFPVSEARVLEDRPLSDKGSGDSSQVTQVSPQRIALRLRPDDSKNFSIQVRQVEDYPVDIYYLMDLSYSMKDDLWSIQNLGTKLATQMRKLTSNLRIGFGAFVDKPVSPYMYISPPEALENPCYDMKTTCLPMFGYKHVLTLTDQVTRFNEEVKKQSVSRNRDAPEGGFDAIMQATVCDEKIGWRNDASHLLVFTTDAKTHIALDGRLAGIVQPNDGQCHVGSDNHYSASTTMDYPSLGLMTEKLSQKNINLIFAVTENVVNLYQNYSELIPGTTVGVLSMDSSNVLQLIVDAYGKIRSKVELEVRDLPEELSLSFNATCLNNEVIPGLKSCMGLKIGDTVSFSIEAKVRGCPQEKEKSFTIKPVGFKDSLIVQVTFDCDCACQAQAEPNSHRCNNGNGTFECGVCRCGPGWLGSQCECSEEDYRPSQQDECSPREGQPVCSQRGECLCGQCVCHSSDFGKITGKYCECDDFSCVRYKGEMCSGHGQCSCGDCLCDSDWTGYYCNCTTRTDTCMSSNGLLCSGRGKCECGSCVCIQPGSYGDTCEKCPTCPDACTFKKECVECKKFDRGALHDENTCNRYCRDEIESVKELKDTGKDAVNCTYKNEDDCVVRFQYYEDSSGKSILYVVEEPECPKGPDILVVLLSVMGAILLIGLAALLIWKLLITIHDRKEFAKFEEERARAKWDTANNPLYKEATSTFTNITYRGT
T3 sequence (P06756 31-889 limits assumed): as the sequence (P06756 31-889 limits assumed) above
T3 sequence (P06756 891-1048 partner limits assumed): as the sequence (P06756 891-1048 partner limits assumed) above
T3 sequence (P18564 22-788): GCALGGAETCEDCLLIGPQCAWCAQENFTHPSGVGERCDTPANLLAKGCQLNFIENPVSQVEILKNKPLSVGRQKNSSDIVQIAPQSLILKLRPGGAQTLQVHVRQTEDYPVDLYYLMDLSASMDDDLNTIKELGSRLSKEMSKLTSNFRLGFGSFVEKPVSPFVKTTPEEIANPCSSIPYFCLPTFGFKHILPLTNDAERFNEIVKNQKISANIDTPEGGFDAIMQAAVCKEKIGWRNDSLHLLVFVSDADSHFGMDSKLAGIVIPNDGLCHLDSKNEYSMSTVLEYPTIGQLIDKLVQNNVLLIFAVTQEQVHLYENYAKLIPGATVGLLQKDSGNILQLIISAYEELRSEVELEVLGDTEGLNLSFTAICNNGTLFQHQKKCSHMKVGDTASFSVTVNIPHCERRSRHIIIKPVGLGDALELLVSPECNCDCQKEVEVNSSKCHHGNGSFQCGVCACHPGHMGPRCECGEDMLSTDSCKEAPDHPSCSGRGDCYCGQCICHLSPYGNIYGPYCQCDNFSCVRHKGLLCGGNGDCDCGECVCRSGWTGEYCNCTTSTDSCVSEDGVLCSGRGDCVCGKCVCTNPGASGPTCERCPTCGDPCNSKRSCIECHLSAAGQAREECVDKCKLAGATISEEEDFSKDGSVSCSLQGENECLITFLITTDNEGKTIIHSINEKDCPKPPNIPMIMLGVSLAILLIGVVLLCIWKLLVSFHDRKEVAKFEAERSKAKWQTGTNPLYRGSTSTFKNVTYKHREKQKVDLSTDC
T2 sequence (P08514 32-887 limits assumed): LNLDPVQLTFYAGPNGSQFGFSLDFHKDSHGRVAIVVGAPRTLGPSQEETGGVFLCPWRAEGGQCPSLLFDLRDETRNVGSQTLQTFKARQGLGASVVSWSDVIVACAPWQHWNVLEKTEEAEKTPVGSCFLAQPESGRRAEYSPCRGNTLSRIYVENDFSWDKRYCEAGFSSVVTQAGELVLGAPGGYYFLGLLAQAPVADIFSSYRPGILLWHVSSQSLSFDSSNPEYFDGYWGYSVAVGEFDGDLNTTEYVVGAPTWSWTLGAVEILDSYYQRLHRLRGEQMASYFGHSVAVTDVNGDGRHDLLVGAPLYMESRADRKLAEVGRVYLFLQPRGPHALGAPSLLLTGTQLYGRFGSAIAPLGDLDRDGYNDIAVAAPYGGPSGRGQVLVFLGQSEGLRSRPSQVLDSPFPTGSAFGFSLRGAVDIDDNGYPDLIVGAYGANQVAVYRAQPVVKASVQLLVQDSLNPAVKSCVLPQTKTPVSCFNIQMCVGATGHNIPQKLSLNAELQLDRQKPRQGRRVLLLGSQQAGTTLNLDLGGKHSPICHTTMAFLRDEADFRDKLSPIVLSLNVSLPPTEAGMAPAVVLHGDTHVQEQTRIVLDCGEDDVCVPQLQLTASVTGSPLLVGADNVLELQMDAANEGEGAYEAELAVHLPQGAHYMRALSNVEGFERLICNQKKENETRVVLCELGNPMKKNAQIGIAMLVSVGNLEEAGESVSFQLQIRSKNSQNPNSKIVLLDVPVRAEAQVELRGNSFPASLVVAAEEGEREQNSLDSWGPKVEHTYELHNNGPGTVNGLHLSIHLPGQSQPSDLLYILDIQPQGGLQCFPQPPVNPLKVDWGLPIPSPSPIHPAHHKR
T2 sequence (P08514 891-1039 partner limits assumed): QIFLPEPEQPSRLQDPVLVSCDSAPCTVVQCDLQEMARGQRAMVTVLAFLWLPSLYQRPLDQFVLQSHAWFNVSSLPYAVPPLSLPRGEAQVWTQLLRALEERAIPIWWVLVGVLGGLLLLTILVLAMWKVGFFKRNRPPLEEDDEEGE
T2 sequence (P05106 27-788): as the sequence (P05106 27-788) above

IC50 [1] [µM]	SPRA AIIbB3 Selectivity* IIbIIIa/β3 [2]	HT-29 β-6 Selectivity* (β6/β3) [3]	Compound
< 10	+++ (Selectivity Ratio >100 +++)	+++ (Selectivity Ratio >100 +++)	O=C(O)C(F)(F)F.O=C(O)CC(Cc1nc(CCCCNc2ccccn2)no1)c1ccc(F)cc1 (stereo not drawn) [Example 27, 3-(4-fluorophenyl)-4-{3-[4-(pyridin-2-ylamino)butyl]-1,2,4-oxadiazol-5-yl}butanoic acid]
< 10	+++ (Selectivity Ratio >100 +++)	+++ (Selectivity Ratio >100 +++)	O=C(O)C(F)(F)F.O=C(O)CC(Cc1nc(CCCc2ccc3c(n2)NCCC3)no1)c1cccc(C(F)(F)F)c1 (stereo not drawn) [Example 28, 4-{3-[3-(5,6,7,8-tetrahydro-1,8-naphthyridin-2-yl)propyl]-1,2,4-oxadiazol-5-yl}-3-[3-(trifluoromethyl)phenyl]butanoic acid]
< 10	+++ (Selectivity Ratio >100 +++)	+++ (Selectivity Ratio >100 +++)	O=C(O)C(F)(F)F.O=C(O)CC(Cc1nc(CCCCNc2ccccn2)no1)c1cccc(C(F)(F)F)c1 (stereo not drawn) [Example 29, 4-{3-[4-(pyridin-2-ylamino)butyl]-1,2,4-oxadiazol-5-yl}-3-[3-(trifluoromethyl)-phenyl]butanoic acid]
< 10	+++ (Selectivity Ratio >100 +++)	+++ (Selectivity Ratio >100 +++)	O=C(O)C(F)(F)F.O=C(O)CC(Cc1nc(CCCc2ccc3c(n2)NCCC3)no1)c1cccnc1 (stereo not drawn) [Example 32, 3-pyridin-3-yl-4-{3-[3-(5,6,7,8-tetrahydro-1,8-naphthyridin-2-yl)propyl]-1,2,4-oxadiazol-5-yl}butanoic acid]
< 10	+++ (Selectivity Ratio >100 +++)	+++ (Selectivity Ratio >100 +++)	O=C(O)CC(Cc1nc(CCCc2ccc3c(n2)NCCC3)no1)c1ccccc1 (stereo not drawn) [Example 34, 3-phenyl-4-{3-[3-(5,6,7,8-tetrahydro-1,8-naphthyridin-2-yl)propyl]-1,2,4-oxadiazol-5-yl}butanoic acid trifluoroacetate]
< 10	++ (Selectivity Ratio of 10-100 ++)	+++ (Selectivity Ratio >100 +++)	O=C(O)CC(Cc1nc(CCCCNc2ccccn2)no1)c1ccccc1 (stereo not drawn) [Example 35, 3-phenyl-4-{3-[4-(pyridin-2-ylamino)butyl]-1,2,4-oxadiazol-5-yl}butanoic acid]
< 10	+++ (Selectivity Ratio >100 +++)	+++ (Selectivity Ratio >100 +++)	CCC(C)(CC(=O)O)Cc1nc(CCCCNc2ccccn2)no1 (stereo not drawn) [Example 36, 3-methyl-3-({3-[4-(pyridin-2-ylamino)butyl]-1,2,4-oxadiazol-5-yl}methyl)pentanoic acid]
< 10	++ (Selectivity Ratio of 10-100 ++)	++ (Selectivity Ratio of 10-100 ++)	O=C(O)CC1(Cc2nc(CCCCNc3ccccn3)no2)CCCCC1 [Example 37, [1-({3-[4-(pyridin-2-ylamino)butyl]-1,2,4-oxadiazol-5-yl}methyl)cyclohexyl]-acetic acid]
< 10	+++ (Selectivity Ratio >100 +++)	+++ (Selectivity Ratio >100 +++)	CCCC(C)(CC(=O)O)Cc1nc(CCCCNc2ccccn2)no1 (stereo not drawn) [Example 38, 3-methyl-3-({3-[4-(pyridin-2-ylamino)butyl]-1,2,4-oxadiazol-5-yl}methyl)-hexanoic acid]
< 10	++ (Selectivity Ratio of 10-100 ++)	++ (Selectivity Ratio of 10-100 ++)	CC(C)C(C)(CC(=O)O)Cc1nc(CCCCNc2ccccn2)no1 (stereo not drawn) [Example 39, 3,4-dimethyl-3-({3-[4-(pyridin-2-ylamino)butyl]-1,2,4-oxadiazol-5-yl}methyl)-pentanoic acid]
< 10	+++ (Selectivity Ratio >100 +++)	++ (Selectivity Ratio of 10-100 ++)	CCC(CC)(CC(=O)O)Cc1nc(CCCCNc2ccccn2)no1 [Example 40, 3-ethyl-3-({3-[4-(pyridin-2-ylamino)butyl]-1,2,4-oxadiazol-5-yl}methyl)-pentanoic acid]
< 10	++ (Selectivity Ratio of 10-100 ++)	+++ (Selectivity Ratio >100 +++)	O=C(O)CCCc1nc(CCCCNc2ccccn2)no1 [Example 41, 4-{3-[4-(pyridin-2-ylamino)butyl]-1,2,4-oxadiazol-5-yl}butanoic acid]
< 10	+++ (Selectivity Ratio >100 +++)	+++ (Selectivity Ratio >100 +++)	CC(CC(=O)O)(Cc1nc(CCCCNc2ccccn2)no1)c1ccccc1 (stereo not drawn) [Example 42, 3-methyl-3-phenyl-4-{3-[4-(pyridin-2-ylamino)butyl]-1,2,4-oxadiazol-5-yl}-butanoic acid]
< 10	+++ (Selectivity Ratio >100 +++)	+++ (Selectivity Ratio >100 +++)	CCC(C)(CC(=O)O)Cc1nc(CCCc2ccc3c(n2)NCCC3)no1 (stereo not drawn) [Example 43, 3-Methyl-3-{3-[3-(5,6,7,8-tetrahydro-[1,8]naphthyridin-2-yl)-propyl]-[1,2,4]oxadiazol-5-ylmethyl}-pentanoic acid]
